# Measured values: the supplement of paper PMC13207355
# Structures can show the parent of a compound that is named as a salt.
# Assays:
# Settings in all cases: exposure time: 72 h
# E13 [1] = patient-derived glioblastoma stem cells of classical subtype; assay: surviving fraction (nuclei count normalised to DMSO); higher = more cells surviving (less toxic)
# E21 [2] = patient-derived glioblastoma stem cells of mesenchymal subtype; assay: as above
# E28 [3] = patient-derived glioblastoma stem cells of classical subtype; assay: as above
# E31 [4] = patient-derived glioblastoma stem cells of proneural subtype; assay: as above
# E34 [5] = patient-derived glioblastoma stem cells of proneural subtype; assay: as above
# E57 [6] = patient-derived glioblastoma stem cells of mesenchymal subtype; assay: as above
# FT3469 [7] = normal neural stem cell line; assay: as above
# E13 [8] = assay: phenotypic distance (Euclidean, principal components) from DMSO controls (arbitrary units); higher = stronger morphological change
# E21 [9] = assay: as above
# E28 [10] = assay: as above
# E31 [11] = assay: as above
# E34 [12] = assay: as above
# E57 [13] = assay: as above
# FT3469 [14] = assay: as above
# 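Throughout, for phenotypic distance (Euclidean, principal components) from DMSO controls: cell Painting imaging in 384-well plates, CellProfiler features reduced to at least 20 principal components, Euclidean distance versus same-plate DMSO vehicle wells (0.1% v/v), median over six images per well.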
# 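Throughout, for surviving fraction (nuclei count normalised to DMSO): nuclei counted by high-content imaging of Hoechst-stained cells in laminin-coated 384-well plates, relative to 0.1% DMSO vehicle wells, with staurosporine as cell-death control.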
compound,measurement,setting,value
Cc1c(-c2ccc(-c3ccccc3F)cc2)nc2ccc(F)cc2c1C(=O)O [Brequinar sodium salt hydrate],surviving fraction,E13 [1]; 4.1 nM,1.01
same,surviving fraction,E13 [1]; 12.3 nM,1.08
same,surviving fraction,E13 [1]; 37 nM,1.03
same,surviving fraction,E13 [1]; 111.1 nM,0.858
same,surviving fraction,E13 [1]; 333.3 nM,0.726
same,surviving fraction,E13 [1]; 1000 nM,0.615
same,surviving fraction,E13 [1]; 3000 nM,0.471
same,surviving fraction,E21 [2]; 4.1 nM,0.951
same,surviving fraction,E21 [2]; 12.3 nM,1.04
same,surviving fraction,E21 [2]; 37 nM,0.918
same,surviving fraction,E21 [2]; 111.1 nM,0.817
same,surviving fraction,E21 [2]; 333.3 nM,0.699
same,surviving fraction,E21 [2]; 1000 nM,0.649
same,surviving fraction,E21 [2]; 3000 nM,0.444
same,surviving fraction,E28 [3]; 4.1 nM,1.13
same,surviving fraction,E28 [3]; 12.3 nM,1.03
same,surviving fraction,E28 [3]; 37 nM,0.963
same,surviving fraction,E28 [3]; 111.1 nM,0.807
same,surviving fraction,E28 [3]; 333.3 nM,0.606
same,surviving fraction,E28 [3]; 1000 nM,0.42
same,surviving fraction,E28 [3]; 3000 nM,0.344
same,surviving fraction,E31 [4]; 4.1 nM,1.1
same,surviving fraction,E31 [4]; 12.3 nM,1
same,surviving fraction,E31 [4]; 37 nM,0.96
same,surviving fraction,E31 [4]; 111.1 nM,1.13
same,surviving fraction,E31 [4]; 333.3 nM,0.724
same,surviving fraction,E31 [4]; 1000 nM,0.392
same,surviving fraction,E31 [4]; 3000 nM,0.407
same,surviving fraction,E34 [5]; 4.1 nM,0.811
same,surviving fraction,E34 [5]; 12.3 nM,0.864
same,surviving fraction,E34 [5]; 37 nM,0.96
same,surviving fraction,E34 [5]; 111.1 nM,1.01
same,surviving fraction,E34 [5]; 333.3 nM,0.909
same,surviving fraction,E34 [5]; 1000 nM,0.888
same,surviving fraction,E34 [5]; 3000 nM,0.794
same,surviving fraction,E57 [6]; 4.1 nM,0.969
same,surviving fraction,E57 [6]; 12.3 nM,0.999
same,surviving fraction,E57 [6]; 37 nM,0.871
same,surviving fraction,E57 [6]; 111.1 nM,0.67
same,surviving fraction,E57 [6]; 333.3 nM,0.458
same,surviving fraction,E57 [6]; 1000 nM,0.372
same,surviving fraction,E57 [6]; 3000 nM,0.325
same,surviving fraction,FT3469 [7]; 4.1 nM,0.883
same,surviving fraction,FT3469 [7]; 12.3 nM,0.941
same,surviving fraction,FT3469 [7]; 37 nM,0.996
same,surviving fraction,FT3469 [7]; 111.1 nM,1
same,surviving fraction,FT3469 [7]; 333.3 nM,0.858
same,surviving fraction,FT3469 [7]; 1000 nM,0.742
same,surviving fraction,FT3469 [7]; 3000 nM,0.65
same,phenotypic distance,E13 [8]; 4.1 nM,0.5
same,phenotypic distance,E13 [8]; 12.3 nM,0.844
same,phenotypic distance,E13 [8]; 37 nM,0.761
same,phenotypic distance,E13 [8]; 111.1 nM,1.8
same,phenotypic distance,E13 [8]; 333.3 nM,4.41
same,phenotypic distance,E13 [8]; 1000 nM,4.43
same,phenotypic distance,E13 [8]; 3000 nM,5.02
same,phenotypic distance,E21 [9]; 4.1 nM,0.972
same,phenotypic distance,E21 [9]; 12.3 nM,0.391
same,phenotypic distance,E21 [9]; 37 nM,1.22
same,phenotypic distance,E21 [9]; 111.1 nM,0.607
same,phenotypic distance,E21 [9]; 333.3 nM,1.48
same,phenotypic distance,E21 [9]; 1000 nM,2.5
same,phenotypic distance,E21 [9]; 3000 nM,3.68
same,phenotypic distance,E28 [10]; 4.1 nM,1.07
same,phenotypic distance,E28 [10]; 12.3 nM,0.503
same,phenotypic distance,E28 [10]; 37 nM,0.823
same,phenotypic distance,E28 [10]; 111.1 nM,1.12
same,phenotypic distance,E28 [10]; 333.3 nM,1.2
same,phenotypic distance,E28 [10]; 1000 nM,2.26
same,phenotypic distance,E28 [10]; 3000 nM,2.28
same,phenotypic distance,E31 [11]; 4.1 nM,0.556
same,phenotypic distance,E31 [11]; 12.3 nM,0.921
same,phenotypic distance,E31 [11]; 37 nM,0.734
same,phenotypic distance,E31 [11]; 111.1 nM,0.725
same,phenotypic distance,E31 [11]; 333.3 nM,2.59
same,phenotypic distance,E31 [11]; 1000 nM,3.28
same,phenotypic distance,E31 [11]; 3000 nM,3.43
same,phenotypic distance,E34 [12]; 4.1 nM,0.701
same,phenotypic distance,E34 [12]; 12.3 nM,0.581
same,phenotypic distance,E34 [12]; 37 nM,0.513
same,phenotypic distance,E34 [12]; 111.1 nM,0.804
same,phenotypic distance,E34 [12]; 333.3 nM,1
same,phenotypic distance,E34 [12]; 1000 nM,1.62
same,phenotypic distance,E34 [12]; 3000 nM,2.87
same,phenotypic distance,E57 [13]; 4.1 nM,1.62
same,phenotypic distance,E57 [13]; 12.3 nM,0.514
same,phenotypic distance,E57 [13]; 37 nM,1.88
same,phenotypic distance,E57 [13]; 111.1 nM,3.44
same,phenotypic distance,E57 [13]; 333.3 nM,5.23
same,phenotypic distance,E57 [13]; 1000 nM,6.97
same,phenotypic distance,E57 [13]; 3000 nM,6.84
same,phenotypic distance,FT3469 [14]; 4.1 nM,0.696
same,phenotypic distance,FT3469 [14]; 12.3 nM,0.439
same,phenotypic distance,FT3469 [14]; 37 nM,0.863
same,phenotypic distance,FT3469 [14]; 111.1 nM,0.612
same,phenotypic distance,FT3469 [14]; 333.3 nM,1.17
same,phenotypic distance,FT3469 [14]; 1000 nM,1.76
same,phenotypic distance,FT3469 [14]; 3000 nM,1.88
CCOC(=O)OC(C)OC(=O)[C@@H]1N2C(=O)[C@@H](NC(=O)[C@H](N)c3ccccc3)[C@H]2SC1(C)C (stereo partly specified) [Bacampicillin hydrochloride],surviving fraction,E13 [1]; 4.1 nM,0.878
same,surviving fraction,E13 [1]; 12.3 nM,0.951
same,surviving fraction,E13 [1]; 37 nM,1.03
same,surviving fraction,E13 [1]; 111.1 nM,0.813
same,surviving fraction,E13 [1]; 333.3 nM,1
same,surviving fraction,E13 [1]; 1000 nM,1.04
same,surviving fraction,E13 [1]; 3000 nM,1.11
same,surviving fraction,E21 [2]; 4.1 nM,0.982
same,surviving fraction,E21 [2]; 12.3 nM,1.01
same,surviving fraction,E21 [2]; 37 nM,1.09
same,surviving fraction,E21 [2]; 111.1 nM,1.01
same,surviving fraction,E21 [2]; 333.3 nM,1
same,surviving fraction,E21 [2]; 1000 nM,0.914
same,surviving fraction,E21 [2]; 3000 nM,1.06
same,surviving fraction,E28 [3]; 4.1 nM,0.882
same,surviving fraction,E28 [3]; 12.3 nM,0.993
same,surviving fraction,E28 [3]; 37 nM,1.09
same,surviving fraction,E28 [3]; 111.1 nM,1.19
same,surviving fraction,E28 [3]; 333.3 nM,0.997
same,surviving fraction,E28 [3]; 1000 nM,1.15
same,surviving fraction,E28 [3]; 3000 nM,1.06
same,surviving fraction,E31 [4]; 4.1 nM,0.986
same,surviving fraction,E31 [4]; 12.3 nM,0.807
same,surviving fraction,E31 [4]; 37 nM,0.871
same,surviving fraction,E31 [4]; 111.1 nM,0.941
same,surviving fraction,E31 [4]; 333.3 nM,1
same,surviving fraction,E31 [4]; 1000 nM,0.965
same,surviving fraction,E31 [4]; 3000 nM,1.1
same,surviving fraction,E34 [5]; 4.1 nM,0.918
same,surviving fraction,E34 [5]; 12.3 nM,1.02
same,surviving fraction,E34 [5]; 37 nM,0.858
same,surviving fraction,E34 [5]; 111.1 nM,0.934
same,surviving fraction,E34 [5]; 333.3 nM,1.25
same,surviving fraction,E34 [5]; 1000 nM,1.05
same,surviving fraction,E34 [5]; 3000 nM,1.07
same,surviving fraction,E57 [6]; 4.1 nM,0.987
same,surviving fraction,E57 [6]; 12.3 nM,1.09
same,surviving fraction,E57 [6]; 37 nM,0.961
same,surviving fraction,E57 [6]; 111.1 nM,1.03
same,surviving fraction,E57 [6]; 333.3 nM,0.926
same,surviving fraction,E57 [6]; 1000 nM,0.97
same,surviving fraction,E57 [6]; 3000 nM,0.956
same,surviving fraction,FT3469 [7]; 4.1 nM,0.909
same,surviving fraction,FT3469 [7]; 12.3 nM,0.875
same,surviving fraction,FT3469 [7]; 37 nM,1.05
same,surviving fraction,FT3469 [7]; 111.1 nM,0.978
same,surviving fraction,FT3469 [7]; 333.3 nM,1.03
same,surviving fraction,FT3469 [7]; 1000 nM,1.05
same,surviving fraction,FT3469 [7]; 3000 nM,0.858
same,phenotypic distance,E13 [8]; 4.1 nM,0.65
same,phenotypic distance,E13 [8]; 12.3 nM,1.12
same,phenotypic distance,E13 [8]; 37 nM,0.975
same,phenotypic distance,E13 [8]; 111.1 nM,0.635
same,phenotypic distance,E13 [8]; 333.3 nM,0.439
same,phenotypic distance,E13 [8]; 1000 nM,0.698
same,phenotypic distance,E13 [8]; 3000 nM,0.628
same,phenotypic distance,E21 [9]; 4.1 nM,0.814
same,phenotypic distance,E21 [9]; 12.3 nM,0.643
same,phenotypic distance,E21 [9]; 37 nM,1.05
same,phenotypic distance,E21 [9]; 111.1 nM,0.376
same,phenotypic distance,E21 [9]; 333.3 nM,0.776
same,phenotypic distance,E21 [9]; 1000 nM,0.7
same,phenotypic distance,E21 [9]; 3000 nM,0.853
same,phenotypic distance,E28 [10]; 4.1 nM,0.82
same,phenotypic distance,E28 [10]; 12.3 nM,0.789
same,phenotypic distance,E28 [10]; 37 nM,1.1
same,phenotypic distance,E28 [10]; 111.1 nM,0.421
same,phenotypic distance,E28 [10]; 333.3 nM,0.781
same,phenotypic distance,E28 [10]; 1000 nM,0.904
same,phenotypic distance,E28 [10]; 3000 nM,0.881
same,phenotypic distance,E31 [11]; 4.1 nM,0.89
same,phenotypic distance,E31 [11]; 12.3 nM,0.639
same,phenotypic distance,E31 [11]; 37 nM,0.836
same,phenotypic distance,E31 [11]; 111.1 nM,0.578
same,phenotypic distance,E31 [11]; 333.3 nM,0.932
same,phenotypic distance,E31 [11]; 1000 nM,0.697
same,phenotypic distance,E31 [11]; 3000 nM,0.565
same,phenotypic distance,E34 [12]; 4.1 nM,0.569
same,phenotypic distance,E34 [12]; 12.3 nM,0.614
same,phenotypic distance,E34 [12]; 37 nM,0.651
same,phenotypic distance,E34 [12]; 111.1 nM,0.507
same,phenotypic distance,E34 [12]; 333.3 nM,1.28
same,phenotypic distance,E34 [12]; 1000 nM,0.329
same,phenotypic distance,E34 [12]; 3000 nM,1.06
same,phenotypic distance,E57 [13]; 4.1 nM,0.537
same,phenotypic distance,E57 [13]; 12.3 nM,1.07
same,phenotypic distance,E57 [13]; 37 nM,0.681
same,phenotypic distance,E57 [13]; 111.1 nM,0.754
same,phenotypic distance,E57 [13]; 333.3 nM,0.45
same,phenotypic distance,E57 [13]; 1000 nM,0.576
same,phenotypic distance,E57 [13]; 3000 nM,0.604
same,phenotypic distance,FT3469 [14]; 4.1 nM,0.697
same,phenotypic distance,FT3469 [14]; 12.3 nM,0.387
same,phenotypic distance,FT3469 [14]; 37 nM,0.735
same,phenotypic distance,FT3469 [14]; 111.1 nM,0.551
same,phenotypic distance,FT3469 [14]; 333.3 nM,0.433
same,phenotypic distance,FT3469 [14]; 1000 nM,0.827
same,phenotypic distance,FT3469 [14]; 3000 nM,0.96
